Experimental data from US20100267561A1, “HERBICIDAL PYRIDAZINONE DERIVATIVES” (priority 2007, published 2010).

Experiments:
Assay type in all cases: in vivo
[1] = tested on: barnyardgrass (Echinochloa crus-galli); experiment: Test B flooded paddy test plant response
Procedure, shortened: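 Step one: raise plants to 2 leaves. Step two: flood pots 3 cm over the soil and apply compound into the water, keeping this depth. Step three: after 13–15 greenhouse days, score visually versus controls, 0–100, where 100 means complete control.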

[2] = tested on: windgrass (Apera spica-venti); experiment: Test B postemergence plant response; conditions: Postemergence
Procedure, shortened: (§1)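 Scoring: 0 means no effect and 100 complete control, judged by eye against controls after 13–15 days under greenhouse conditions following postemergence application at 2–18 cm plant height.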

[3] = tested on: canarygrass (Phalaris minor); experiment: Test B postemergence plant response; conditions: Postemergence
Procedure, shortened: as §1

[4] = tested on: winter barley (Hordeum vulgare); experiment: Test B postemergence plant response; conditions: Postemergence
Procedure, shortened: as §1

[5] = tested on: chickweed (Stellaria media); experiment: Test B postemergence plant response; conditions: Postemergence
Procedure, shortened: as §1

[6] = tested on: wild oat (Avena fatua); experiment: Test B pre-/postemergence plant response
Procedure, shortened: (§2)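 Seeds were sown and sprayed preemergence, while plants at 2 to 18 cm (1- to 4-leaf stage) got postemergence sprays. Compounds were formulated in a non-phytotoxic solvent mixture with surfactant. After 13 to 15 days in a greenhouse, injury was rated visually against untreated controls, 0 (no effect) to 100 (complete control).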

[7] = tested on: yellow nutsedge (Cyperus esculentus); experiment: Test B pre-/postemergence plant response
Procedure, shortened: as §2

[8] = tested on: bermudagrass (Cynodon dactylon); experiment: Test B pre-/postemergence plant response
Procedure, shortened: as §2

[9] = tested on: velvetleaf (Abutilon theophrasti); experiment: Test B pre-/postemergence plant response
Procedure, shortened: as §2

[10] = tested on: blackgrass (Alopecurus myosuroides); experiment: Test B pre-/postemergence plant response
Procedure, shortened: as §2

[11] = tested on: lambsquarters (Chenopodium album); experiment: Test B pre-/postemergence plant response; conditions: Postemergence
Procedure, shortened: as §2

[12] = tested on: giant foxtail (Setaria faberii); experiment: Test B pre-/postemergence plant response
Procedure, shortened: as §2

[13] = tested on: eastern black (E.B.) nightshade (Solanum ptycanthum); experiment: Test B pre-/postemergence plant response; conditions: Preemergence
Procedure, shortened: as §2

[14] = tested on: morningglory (Ipomoea coccinea); experiment: Test B pre-/postemergence plant response
Procedure, shortened: as §2

[15] = tested on: corn (Zea mays); experiment: Test B pre-/postemergence plant response
Procedure, shortened: as §2

[16] = 31 g ai/ha, scale 0 to 100, 0 no effect, 100 complete control
[17] = Postemergence, 31 g ai/ha, scale 0 to 100, 0 no effect, 100 complete control
[18] = Postemergence, 62 g ai/ha, scale 0 to 100
[19] = Postemergence, 125 g ai/ha, scale 0 to 100
[20] = Postemergence, 250 g ai/ha, scale 0 to 100
[21] = Preemergence, 31 g ai/ha, 0 to 100 scale, 0 no effect, 100 complete control
[22] = Preemergence, 62 g ai/ha, scale 0 to 100
[23] = Preemergence, 125 g ai/ha, scale 0 to 100
[24] = Preemergence, 250 g ai/ha, scale 0 to 100
[25] = 250 g ai/ha, preemergence, 0-100 scale

4-[3-(4-chlorophenyl)-5-methyl-1H-pyrazol-3-yl]-5-hydroxy-2-methyl-3(2H)-pyridazinone [Compound 3]
Plant response rating, Barnyardgrass ([1]; Flood (flooded paddy test), 62 g ai/ha, scale 0 to 100, 0 no effect, 100 complete control): 60 | Plant response rating, Barnyardgrass ([1]; Flood (flooded paddy test), 125 g ai/ha, scale 0 to 100, 0 no effect, 100 complete control): 70 | Plant response rating, Barnyardgrass ([1]; Flood (flooded paddy test), 250 g ai/ha, scale 0 to 100, 0 no effect, 100 complete control): 80 | Plant response rating, Barnyardgrass ([1]; Flood, 31 g ai/ha, scale 0 to 100): 0 | Plant response rating, Windgrass [2, 16]: 80 | Plant response rating, Windgrass ([2]; 62 g ai/ha, scale 0 to 100): 100 | Plant response rating, Windgrass ([2]; 125 g ai/ha, scale 0 to 100): 100 | Plant response rating, Windgrass ([2]; 250 g ai/ha, scale 0 to 100): 100 | Plant response rating, Canarygrass [3, 16]: 85 | Plant response rating, Canarygrass ([3]; 62 g ai/ha, scale 0 to 100): 85 | Plant response rating, Canarygrass ([3]; 125 g ai/ha, scale 0 to 100): 85 | Plant response rating, Canarygrass ([3]; 250 g ai/ha, scale 0 to 100): 90 | Plant response rating, Barley [4, 16]: 0 | Plant response rating, Barley ([4]; 62 g ai/ha, scale 0 to 100): 0 | Plant response rating, Barley ([4]; 125 g ai/ha, scale 0 to 100): 0 | Plant response rating, Barley ([4]; 250 g ai/ha, scale 0 to 100): 0 | Plant response rating, Chickweed [5, 16]: 0 | Plant response rating, Chickweed ([5]; 62 g ai/ha, scale 0 to 100): 0 | Plant response rating, Chickweed ([5]; 125 g ai/ha, scale 0 to 100): 0 | Plant response rating, Chickweed ([5]; 250 g ai/ha, scale 0 to 100): 0 | Plant response rating, Oat, Wild [6, 17]: 90 | Plant response rating, Oat, Wild [6, 18]: 95 | Plant response rating, Oat, Wild [6, 19]: 100 | Plant response rating, Oat, Wild [6, 20]: 100 | Plant response rating, Oat, Wild [6, 21]: 60 | Plant response rating, Oat, Wild [6, 22]: 70 | Plant response rating, Oat, Wild [6, 23]: 80 | Plant response rating, Oat, Wild [6, 24]: 95 | Plant response rating, Nutsedge, Yellow [7, 17]: 0 | Plant response rating, Nutsedge, Yellow [7, 18]: 0 | Plant response rating, Nutsedge, Yellow [7, 19]: 0 | Plant response rating, Nutsedge, Yellow [7, 20]: 0 | Plant response rating, Nutsedge, Yellow [7, 21]: 0 | Plant response rating, Nutsedge, Yellow [7, 22]: 0 | Plant response rating, Nutsedge, Yellow [7, 23]: 0 | Plant response rating, Nutsedge, Yellow [7, 24]: 0 | Bermudagrass plant response rating [8, 25]: 100 | Plant response rating, Bermudagrass [8, 17]: 100 | Plant response rating, Bermudagrass [8, 18]: 100 | Plant response rating, Bermudagrass [8, 19]: 100 | Plant response rating, Bermudagrass [8, 20]: 100 | Plant response rating, Bermudagrass [8, 21]: 30 | Plant response rating, Bermudagrass [8, 22]: 100 | Plant response rating, Bermudagrass [8, 23]: 100 | Plant response rating, Velvetleaf [9, 17]: 0 | Plant response rating, Velvetleaf [9, 18]: 0 | Plant response rating, Velvetleaf [9, 19]: 0 | Plant response rating, Velvetleaf [9, 20]: 0 | Plant response rating, Velvetleaf [9, 21]: 0 | Plant response rating, Velvetleaf [9, 22]: 0 | Plant response rating, Velvetleaf [9, 23]: 0 | Plant response rating, Velvetleaf [9, 24]: 20 | Blackgrass plant response rating [10, 25]: 100 | Plant response rating, Blackgrass [10, 17]: 100 | Plant response rating, Blackgrass [10, 18]: 100 | Plant response rating, Blackgrass [10, 19]: 100 | Plant response rating, Blackgrass [10, 20]: 100 | Plant response rating, Blackgrass [10, 21]: 80 | Plant response rating, Blackgrass [10, 22]: 100 | Plant response rating, Blackgrass [10, 23]: 100 | Plant response rating, Lambsquarters [11, 16]: 0 | Plant response rating, Lambsquarters ([11]; 62 g ai/ha, scale 0 to 100): 0 | Plant response rating, Lambsquarters ([11]; 125 g ai/ha, scale 0 to 100): 15 | Plant response rating, Lambsquarters ([11]; 250 g ai/ha, scale 0 to 100): 20 | Plant response rating, Foxtail, Giant [12, 17]: 100 | Plant response rating, Foxtail, Giant [12, 18]: 100 | Plant response rating, Foxtail, Giant [12, 19]: 100 | Plant response rating, Foxtail, Giant [12, 20]: 100 | Plant response rating, Foxtail, Giant [12, 21]: 98 | Plant response rating, Foxtail, Giant [12, 22]: 98 | Plant response rating, Foxtail, Giant [12, 23]: 100 | Plant response rating, Foxtail, Giant [12, 24]: 100 | Plant response rating, Nightshade, E. B. ([13]; 31 g ai/ha, 0 to 100 scale, 0 no effect, 100 complete control): 90 | Plant response rating, Nightshade, E. B. ([13]; 62 g ai/ha, scale 0 to 100): 100 | Plant response rating, Nightshade, E. B. ([13]; 125 g ai/ha, scale 0 to 100): 100 | Plant response rating, Nightshade, E. B. ([13]; 250 g ai/ha, scale 0 to 100): 100 | Plant response rating, Morningglory [14, 17]: 0 | Plant response rating, Morningglory [14, 18]: 0 | Plant response rating, Morningglory [14, 19]: 0 | Plant response rating, Morningglory [14, 20]: 0 | Plant response rating, Morningglory [14, 21]: 0 | Plant response rating, Morningglory [14, 22]: 0 | Plant response rating, Morningglory [14, 23]: 0 | Plant response rating, Morningglory [14, 24]: 0 | Plant response rating, Corn [15, 17]: 100 | Plant response rating, Corn [15, 18]: 100 | Plant response rating, Corn [15, 19]: 100 | Plant response rating, Corn [15, 20]: 100 | Plant response rating, Corn [15, 21]: 95 | Plant response rating, Corn [15, 22]: 95 | Plant response rating, Corn [15, 23]: 95 | Plant response rating, Corn [15, 24]: 98
